pIC50: −log10 of the molar value.

human TRPV3 receptors, sequence (Q8NET8 whole entry): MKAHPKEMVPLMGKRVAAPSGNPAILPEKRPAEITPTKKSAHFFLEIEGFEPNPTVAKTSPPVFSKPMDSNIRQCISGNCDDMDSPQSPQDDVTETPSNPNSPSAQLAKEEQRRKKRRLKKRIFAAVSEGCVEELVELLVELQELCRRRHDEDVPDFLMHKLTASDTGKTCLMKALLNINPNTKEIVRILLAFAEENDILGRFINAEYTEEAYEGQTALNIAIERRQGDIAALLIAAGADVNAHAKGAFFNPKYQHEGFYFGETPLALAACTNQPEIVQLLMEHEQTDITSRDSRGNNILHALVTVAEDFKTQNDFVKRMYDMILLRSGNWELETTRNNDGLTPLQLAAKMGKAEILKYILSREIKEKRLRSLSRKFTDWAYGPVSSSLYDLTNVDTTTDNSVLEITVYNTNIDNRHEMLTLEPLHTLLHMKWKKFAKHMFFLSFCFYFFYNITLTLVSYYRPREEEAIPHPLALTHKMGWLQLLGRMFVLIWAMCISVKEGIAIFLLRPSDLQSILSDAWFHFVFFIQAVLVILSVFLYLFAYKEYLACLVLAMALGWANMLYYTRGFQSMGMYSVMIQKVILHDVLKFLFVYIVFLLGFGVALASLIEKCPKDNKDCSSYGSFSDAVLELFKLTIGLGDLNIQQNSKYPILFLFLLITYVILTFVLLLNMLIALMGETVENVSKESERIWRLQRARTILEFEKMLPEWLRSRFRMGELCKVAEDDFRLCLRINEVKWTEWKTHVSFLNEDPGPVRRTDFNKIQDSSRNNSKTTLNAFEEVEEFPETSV

This test concerns the target human TRPV3 receptors (Homo sapiens (Human), UniProt Q8NET8). Put plainly: Calcium flux assay (FLIPR TETRA), inhibition of the 2-APB response. The test is classed as cell-based. The following applies: recombinant HEK293 cells stably expressing TRPV3, Calcium-4 dye, 2-APB at its EC80. In short, it runs like this: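 HEK293 cells stably expressing human and mouse TRPV3, plated the day before and dye-loaded 90-120 min in the dark, read on FLIPR Tetra. Peak fluorescence increase over baseline was expressed as percent of the maximal 2-APB response without compound.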
As to `CC(C)(CO)CNCc1ccnc(-c2ccc(C(F)(F)F)cc2)n1` [Example 156, 2,2-dimethyl-3-[({2-[4-(trifluoromethyl)phenyl]pyrimidin-4-yl}methyl)amino]propan-1-ol], the pIC50 was less than 4.70.

Take `OCC1(CNCc2ccnc(-c3ccc(C(F)(F)F)cc3)n2)CCC1` [Example 157, (1-{[({2-[4-(trifluoromethyl)phenyl]pyrimidin-4-yl}methyl)amino]methyl}cyclobutyl)methanol]: the pIC50 is less than 4.70.

Turning to `OCC1(CNCc2ccnc(-c3ccc(C(F)(F)F)cc3)n2)CCCC1` [Example 158, (1-{[({2-[4-(trifluoromethyl)phenyl]pyrimidin-4-yl}methyl)amino]methyl}cyclopentyl)methanol], the pIC50 was less than 4.70.

`OCC1(CNCc2ccnc(-c3ccc(C(F)(F)F)cc3)n2)CCCCC1` [Example 159, (1-{[({2-[4-(trifluoromethyl)phenyl]pyrimidin-4-yl}methyl)amino]methyl}cyclohexyl)methanol]: the pIC50 was 4.75.

With `OCC1(CNCc2ccnc(-c3ccc(C(F)(F)F)cc3)n2)COC1` [Example 160], the negative-log IC50 (pIC50) was less than 4.70.

For `OCC1(CNCc2ccnc(-c3ccc(C(F)(F)F)cc3)n2)CCOCC1` [Example 161], the pIC50 is less than 4.70.

Regarding `OCC[C@@H](NCc1ccnc(-c2ccc(C(F)(F)F)cc2)n1)c1ccccc1` [Example 162, (3R)-3-phenyl-3-[({2-[4-(trifluoromethyl)phenyl]pyrimidin-4-yl}methyl)amino]propan-1-ol], the pIC50 is less than 4.70.

Regarding `OCC[C@H](NCc1ccnc(-c2ccc(C(F)(F)F)cc2)n1)c1ccccc1` [Example 163, (3S)-3-phenyl-3-[({2-[4-(trifluoromethyl)phenyl]pyrimidin-4-yl}methyl)amino]propan-1-ol], the pIC50 was less than 4.70.

For `OC(CCNCc1ccnc(-c2ccc(C(F)(F)F)cc2)n1)c1ccccc1` (stereo not drawn) [Example 164, 1-phenyl-3-[({2-[4-(trifluoromethyl)phenyl]pyrimidin-4-yl}methyl)amino]propan-1-ol], the pIC50 is less than 4.70.

For the compound `O[C@H]1CCCC[C@@H]1CNCc1ccnc(-c2ccc(C(F)(F)F)cc2)n1` [Example 165, (1S,2R)-2-{[({2-[4-(trifluoromethyl)phenyl]pyrimidin-4-yl}methyl)amino]methyl}cyclohexanol], the pIC50 is less than 4.70.

Take `O[C@@H]1CCCC[C@@H]1CNCc1ccnc(-c2ccc(C(F)(F)F)cc2)n1` [Example 166, (1R,2R)-2-{[({2-[4-(trifluoromethyl)phenyl]pyrimidin-4-yl}methyl)amino]methyl}cyclohexanol]: the pIC50 is less than 4.70.

Turning to `OC[C@H]1CCCC[C@@H]1NCc1ccnc(-c2ccc(C(F)(F)F)cc2)n1` [Example 167, {(1S,2S)-2-[({2-[4-(trifluoromethyl)phenyl]pyrimidin-4-yl}methyl)amino]cyclohexyl}methanol], the pIC50 is less than 4.70.

In the case of `OC[C@@H]1CCCC[C@@H]1NCc1ccnc(-c2ccc(C(F)(F)F)cc2)n1` [Example 168, {(1R,2S)-2-[({2-[4-(trifluoromethyl)phenyl]pyrimidin-4-yl}methyl)amino]cyclohexyl}methanol], the pIC50 is less than 4.70.

In the case of `OC[C@@H]1[C@H]2CC[C@H](C2)[C@@H]1NCc1ccnc(-c2ccc(C(F)(F)F)cc2)n1` [Example 169, {(1S,2R,3S,4R)-3-[({2-[4-(trifluoromethyl)phenyl]pyrimidin-4-yl}methyl)amino]bicyclo[2.2.1]hept-2-yl]methanol], the pIC50 is less than 4.70.

In the case of `OC[C@H]1[C@H]2CC[C@H](C2)[C@H]1NCc1ccnc(-c2ccc(C(F)(F)F)cc2)n1` [Example 170, {(1S,2S,3R,4R)-3-[({2-[4-(trifluoromethyl)phenyl]pyrimidin-4-yl}methyl)amino]bicyclo[2.2.1]hept-2-yl]methanol], the pIC50 is 5.21.

Consider `O[C@H]1CCCC[C@@H]1NCc1ccnc(-c2ccc(C(F)(F)F)cc2)n1` [Example 171, (1S,2S)-2-[({2-[4-(trifluoromethyl)phenyl]pyrimidin-4-yl}methyl)amino]cyclohexanol], for which the pIC50 is 5.26.

On to `O[C@@H]1CCCC[C@@H]1NCc1ccnc(-c2ccc(C(F)(F)F)cc2)n1` [Example 172, (1R,2S)-2-[({2-[4-(trifluoromethyl)phenyl]pyrimidin-4-yl}methyl)amino]cyclohexanol], for which the pIC50 is 5.31.

Take `O[C@@H]1CCC[C@@H]1NCc1ccnc(-c2ccc(C(F)(F)F)cc2)n1` [Example 173, (1R,2S)-2-[({2-[4-(trifluoromethyl)phenyl]pyrimidin-4-yl}methyl)amino]cyclopentanol]: the pIC50 was less than 4.70.

`O[C@H]1CCC[C@@H]1NCc1ccnc(-c2ccc(C(F)(F)F)cc2)n1` [Example 174, (1S,2S)-2-[({2-[4-(trifluoromethyl)phenyl]pyrimidin-4-yl}methyl)amino]cyclopentanol]: the pIC50 was less than 4.70.

Regarding `CC(C)(O)CNCc1ccnc(-c2ccc(C(F)(F)F)cc2)n1` [Example 175, 2-methyl-1-[({2-[4-(trifluoromethyl)phenyl]pyrimidin-4-yl}methyl)amino]propan-2-ol], the pIC50 was less than 4.70.

Regarding `OC1(CNCc2ccnc(-c3ccc(C(F)(F)F)cc3)n2)CC1` [Example 176, 1-{[({2-[4-(trifluoromethyl)phenyl]pyrimidin-4-yl}methyl)amino]methyl}cyclopropanol], the pIC50 was less than 4.70.

In the case of `OC1(CNCc2ccnc(-c3ccc(C(F)(F)F)cc3)n2)CCCC1` [Example 177, 1-{[({2-[4-(trifluoromethyl)phenyl]pyrimidin-4-yl}methyl)amino]methyl}cyclopentanol], the pIC50 is less than 4.70.

`OC1(CNCc2ccnc(-c3ccc(C(F)(F)F)cc3)n2)CCCCC1` [Example 178, 1-{[({2-[4-(trifluoromethyl)phenyl]pyrimidin-4-yl}methyl)amino]methyl}cyclohexanol]: the pIC50 was less than 4.70.

Take `OC(CNCc1ccnc(-c2ccc(C(F)(F)F)cc2)n1)C(F)(F)F` (stereo not drawn) [Example 179, 1,1,1-trifluoro-3-[({2-[4-(trifluoromethyl)phenyl]pyrimidin-4-yl}methyl)amino]propan-2-ol]: the pIC50 was less than 4.70.

Turning to `C[C@H](O)CNCc1ccnc(-c2ccc(C(F)(F)F)cc2)n1` [Example 180, (2S)-1-[({2-[4-(trifluoromethyl)phenyl]pyrimidin-4-yl}methyl)amino]propan-2-ol], the pIC50 was less than 4.70.

With `CCC(O)CNCc1ccnc(-c2ccc(C(F)(F)F)cc2)n1` (stereo not drawn) [Example 181, 1-[({2-[4-(trifluoromethyl)phenyl]pyrimidin-4-yl}methyl)amino]butan-2-ol], the pIC50 is less than 4.70.

`OC(CNCc1ccnc(-c2ccc(C(F)(F)F)cc2)n1)c1ccccc1` (stereo not drawn) [Example 182, 1-phenyl-2-[({2-[4-(trifluoromethyl)phenyl]pyrimidin-4-yl}methyl)amino]ethanol]: the pIC50 was less than 4.70.

For `C[C@@H](O)CNCc1ccnc(-c2ccc(C(F)(F)F)cc2)n1` [Example 183, (2R)-1-[({2-[4-(trifluoromethyl)phenyl]pyrimidin-4-yl}methyl)amino]propan-2-ol], the pIC50 is less than 4.70.

In the case of `CC(C)[C@H](CO)NCc1ccnc(-c2ccc(C(F)(F)F)nc2)n1` [Example 184, (2R)-3-methyl-2-[({2-[6-(trifluoromethyl)pyridin-3-yl]pyrimidin-4-yl}methyl)amino]butan-1-ol], the pIC50 is 5.53.

Take `OCC1(NCc2ccnc(-c3ccc(C(F)(F)F)nc3)n2)CCCCC1` [Example 185, {1-[({2-[6-(trifluoromethyl)pyridin-3-yl]pyrimidin-4-yl}methyl)amino]cyclohexyl}methanol]: the pIC50 was less than 4.70.

Turning to `CC[C@H](CO)NCc1ccnc(-c2ccc(C(F)(F)F)nc2)n1` [Example 186, (2R)-2-[({2-[6-(trifluoromethyl)pyridin-3-yl]pyrimidin-4-yl}methyl)amino]butan-1-ol], the pIC50 was less than 4.70.

Regarding `COCC(CO)NCc1ccnc(-c2ccc(C(F)(F)F)nc2)n1` (stereo not drawn) [Example 187, 3-methoxy-2-[({2-[6-(trifluoromethyl)pyridin-3-yl]pyrimidin-4-yl}methyl)amino]propan-1-ol], the pIC50 is less than 4.70.

For `OC[C@H](NCc1ccnc(-c2ccc(C(F)(F)F)nc2)n1)C1CC1` [Example 188, (2R)-2-cyclopropyl-2-[({2-[6-(trifluoromethyl)pyridin-3-yl]pyrimidin-4-yl}methyl)amino]ethanol], the pIC50 was less than 4.70.

Consider `CC(C)(O)[C@H](CO)NCc1ccnc(-c2ccc(C(F)(F)F)nc2)n1` [Example 189, (2S)-3-methyl-2-[({2-[6-(trifluoromethyl)pyridin-3-yl]pyrimidin-4-yl}methyl)amino]butane-1,3-diol], for which the pIC50 was less than 4.70.

For the compound `CC(O)C(C)NCc1ccnc(-c2ccc(C(F)(F)F)nc2)n1` (stereo not drawn) [Example 190, 3-[({2-[6-(trifluoromethyl)pyridin-3-yl]pyrimidin-4-yl}methyl)amino]butan-2-ol], the pIC50 was 5.09.

For `C[C@@H](O)[C@@H](CO)NCc1ccnc(-c2ccc(C(F)(F)F)nc2)n1` [Example 191, (2R,3R)-2-[({2-[6-(trifluoromethyl)pyridin-3-yl]pyrimidin-4-yl}methyl)amino]butane-1,3-diol], the pIC50 was less than 4.70.

For the compound `CC(C)[C@H](CO)NCc1ccnc(-c2ccc(C(F)(F)F)cn2)n1` [Example 192, (2R)-3-methyl-2-[({2-[5-(trifluoromethyl)pyridin-2-yl]pyrimidin-4-yl}methyl)amino]butan-1-ol], the pIC50 is less than 4.70.

With `CC[C@H](CO)NCc1ccnc(-c2ccc(C(F)(F)F)cn2)n1` [Example 194, (2R)-2-[({2-[5-(trifluoromethyl)pyridin-2-yl]pyrimidin-4-yl}methyl)amino]butan-1-ol], the pIC50 is less than 4.70.

`COCC(CO)NCc1ccnc(-c2ccc(C(F)(F)F)cn2)n1` (stereo not drawn) [Example 195, 3-methoxy-2-[({2-[5-(trifluoromethyl)pyridin-2-yl]pyrimidin-4-yl}methyl)amino]propan-1-ol]: the pIC50 is less than 4.70.

By pIC50 is commonly meant the negative decadic logarithm of the IC50, by convention in mol/L.

The values are drawn from patent US9012651B2, “TRPV3 modulators” (AbbVie Inc., priority 2011, dated 2015).
